Assay results reported in US10111921B2, “Regulation of brain biogenic amines associated with depression by a formulation from botanical source” (GoVind Prasad Dubey, priority 2014, dated 2018).
Marks after values point to notes of the source that are not given here.

Columns and labels:
[1] = test system: mild to moderate depression; experiment: Clinical symptomatology (in percent), clinical trial; type: in vivo, human
Method: (§1) In the present study 99 cases between the age group of 20 to 60 years presenting the symptoms of mild to moderate depression were selected for clinical trial of test formulation containing extract of Nyctanthes arbor-tristis, Ocimum tenuiflorum and Hippophae salicifolia. The subjects were advised to take test formulation twice in a day in two divided doses (475 mg morning and 475 mg in the evening). The level of mood was measured by Major Depression Inventory (MDI) developed by Olsen L R et al (2003), the fatigue and psychomotor performance was measured by Mental Fatigue Apparatus and Rotary Pursuit Task. These tests and test battery are recommended by Gupta and Dubey (1994) for the scientific and objective assessment in the area of drug development. The behavioral pattern was repeatedly assessed at the continuous interval of one month for six months.

minor depressive cases [2] = experiment: Mental fatigue level (Mental Fatigue Apparatus), clinical trial; type: in vivo, human
Method: as §1

minor depressive cases [3] = experiment: Rotatory pursuit task (psychomotor coordination), clinical trial; type: in vivo, human
Method: as §1

[4] = test system: depressive disorder cases; experiment: Anxiety level (score), clinical trial; type: in vivo, human
Method: as §1

[5] = test system: depressive disorder cases; experiment: Mental fatigue (Time), clinical trial; type: in vivo, human
Method: as §1

depression patients = experiment: Attention span (score), clinical trial; type: in vivo, human
Method: as §1

GABA [6] = experiment: GABA level in depression cases; type: in vivo, human
Method: as §1

Glutamate [7] = experiment: Glutamate level in depression cases; type: in vivo, human
Method: as §1

Platelet MAO = Platelet MAO activity in depressive disorder cases; type: in vivo, human
Method: as §1

Glutamate [8] = experiment: Column headed Glutamate (nmol/mg/hr) in platelet MAO table, depressive disorder cases; type: in vivo, human; conditions: After 6 months; clinical Table 8
Source text: (§2) In the present study 99 cases between the age group of 20 to 60 years presenting the symptoms of mild to moderate depression were selected for clinical trial of test formulation containing extract of Nyctanthes arbor-tristis, Ocimum tenuiflorum and Hippophae salicifolia. […] The behavioral pattern was repeatedly assessed at the continuous interval of one month for six months.

Epinephrine = Epinephrine level in depressive cases; type: in vivo, human; conditions: Initial
Source text: as §2

IL-1 β = experiment: Interleukin-1 β concentration in mild to moderate depressive patients; type: in vivo, human
Method: as §1

TNF-α = TNF-α in mild to moderate depressive patients; type: in vivo, human
Method: as §1

DHA = DHA content in mild to moderate depressive patients; type: in vivo, human
Method: as §1

depression cases [9] = experiment: Occipito frontalis muscle action potential in depression cases; type: in vivo, human
Method: as §1

depression cases [10] = experiment: Delta wave in depression cases; type: in vivo, human
Method: as §1

Neuro-peptide-γ = Neuro-peptide-γ content in depressed patients; type: in vivo, human
depressive patients = experiment: Sleep pattern by polysomnographic studies in depressive patients; type: in vivo, human
Method: as §1
In control series (Sertraline treated) all the investigations were repeated and compared with the treated group.
There is an increase in DHA content after oral administration of test formulation for 6 months (Table-12). […] Neuro-peptide-γ is the 36-amino acid which affects anxiety, stress, pain, circadian rhythm and also associated various psychiatric disorders particularly depression of varying degree. […] The effect of test formulation on sleep pattern measured by recording on polysomnographic studies indicated improvement in sleep period, total sleep, sleep latency and various stages of sleep. Though none of the cases could achieve the stage four. The results obtained in the test formulation treatment group were compared with the conventional drug treated group and exerted significant difference when the conventional treated group was compared with the test formulation treated group (Table-16-17). The drug was found safe and effective after 6 months of continuous oral administration to depressed patients.

Melatonin = Melatonin level in brain, experimental sleep deprivation stress model; type: in vivo, rats of Charles foster strain; conditions: 7 days sleep deprivation stress + drug, 10 rats
Method: In this group the sleep deprivation stress was introduced along with the hydro-alcoholic extract of three plants Nyctanthes arbor-tristis, Ocimum tenuiflorum and Hippophae salicifolia. […] On 7th day (after two hours of administration of test drug) different parts of the rat's brain were dissected and 5-HT, melatonin GABA. glutamate and histamine were measured. […]

GABA [11] = experiment: GABA content in the brain following experimental sleep deprivation stress; type: in vivo, rats of Charles foster strain; conditions: 7 days sleep deprivation stress + drug, 10 rats
Source text: (§3) The study is divided into four groups, 10 rats of Charles foster strain were kept in each study group.
(§4) In control group 10 rats were selected and kept on normal saline for 7 days. On 7th days the animals were sacrificed and various biogenic amines like 5-HT GABA & glutamate, melatonin and MAO were estimated. After dissection of rat's brain the biogenic amines were estimated in thalamus, hypothalamus and cortex.
(§5) In this group sleep deprivation stress for 7 days was given to all the 10 rats. After 7 days the rat's brain were dissected and thalamus, hypo-thalamus and cortex were separated for the measurement of brain biogenic amines.
(§6) In this group the sleep deprivation stress was introduced along with the hydro-alcoholic extract of three plants Nyctanthes arbor-tristis, Ocimum tenuiflorum and Hippophae salicifolia. The drug Nyctanthes arbor-tristis (100 mg/kg bw./day), Ocimum tenuiflorum (50 mg/kg bw./day), Hippophae salicifolia (50 mg/kg bw./day) was given in combined form to all the 10 rats along with sleep deprivation stress. On 7th day (after two hours of administration of test drug) different parts of the rat's brain were dissected and 5-HT, melatonin GABA. glutamate and histamine were measured.
(§7) On 7th days the animals were sacrifice and brain biogenic amines were estimated in different parts of rat's brain.
(§8) The value obtained were compared with each other group (Normal vs sleep deprivation stress and sleep deprivation stress vs sleep deprivation stress+test formulation and sleep deprivation stress vs modern drug treatment group. Apart from initial at 7 day before sacrificing the animals circulating biogenic amines were also measured in all the three groups.

Glutamate [12] = experiment: Glutamate level in brain following experimental sleep deprivation stress; type: in vivo, rats of Charles foster strain; conditions: 7 days sleep deprivation stress + drug, 10 rats
Source text: as §3, §4, §5, §6, §7, §8

GABA [13] = experiment: Circulating GABA following experimental sleep deprivation stress; type: in vivo, rats of Charles foster strain; conditions: 7 days sleep deprivation stress + drug, 10 rats
Method: as §3, §6, §7, §8

Glutamate [14] = experiment: Circulating glutamate following experimental sleep deprivation stress; type: in vivo, rats of Charles foster strain; conditions: 7 days sleep deprivation stress + drug, 10 rats
Method: as §3, §6, §7, §8

MAO = experiment: Circulating MAO following experimental sleep deprivation stress; type: in vivo, rats of Charles foster strain; conditions: 7 days sleep deprivation stress + drug, 10 rats
Method: as §3, §6, §7, §8

Histaminase = experiment: Circulating histaminase following experimental sleep deprivation stress; type: in vivo, rats of Charles foster strain; conditions: 7 days sleep deprivation stress + drug, 10 rats
Method: as §3, §6, §7, §8

With `CN[C@H]1CC[C@@H](c2ccc(Cl)c(Cl)c2)c2ccccc21` [Sertraline] the Early fatiguability ([1]; After 6 months) was 91.12* percent, the Lack of interest ([1]; After 6 months) was 92.20* percent and the Pessimistic thinking ([1]; After 6 months) was 95.86* percent. For the same compound, the Poor appetite ([1]; After 6 months) was 50.03* percent, the Poor concentration ([1]; After 6 months) was 86.02* percent and the Poor sleep ([1]; After 6 months) was 79.41* percent. The Psychomotor retardation ([1]; After 6 months) was 78.09* percent, the Weight loss ([1]; After 6 months) was 40.32* percent and the Early fatiguability ([1]; Initial) was 98.01%. The Lack of interest ([1]; Initial) was 97.82%, the Pessimistic thinking ([1]; Initial) was 96.27% and the Poor appetite ([1]; Initial) was 58.89%. The Poor concentration ([1]; Initial) was 88.41%, the Poor sleep ([1]; Initial) was 98.04% and the Psychomotor retardation ([1]; Initial) was 74.66%. It also gave a Weight loss ([1]; Initial) of 42.01%, a Mental fatigue level (minor depressive cases [2]; After 2 months) of 19.68 Hz and a Mental fatigue level (minor depressive cases [2]; After 4 months) of 19.02 Hz. The Mental fatigue level (minor depressive cases [2]; After 6 months) was 18.45 Hz, the Mental fatigue level (minor depressive cases [2]; Initial) was 18.22 Hz and the Rotatory pursuit task (minor depressive cases [3]; After 2 months) was 28.03 Hz. It also gave a Rotatory pursuit task (minor depressive cases [3]; After 4 months) of 27.47 Hz, a Rotatory pursuit task (minor depressive cases [3]; After 6 months) of 26.52 Hz and a Rotatory pursuit task (minor depressive cases [3]; Initial) of 28.39 Hz. For the same compound, the Anxiety level ([4]; After 6 months) was 58.5 score, the Anxiety level ([4]; Initial) was 56.5 score and the “Mental fatigue (Time)” value ([5]; After 6 month) was 90.3. For the same compound, the “Mental fatigue (Time)” value ([5]; Initial) was 94.5, the Attention span (depression patients; After 6 months) was 9.32 Score and the Attention span (depression patients; Initial) was 10.49 Score. It also gave a GABA (GABA [6]; After 6 months) of 1.410 µmol/mL, a GABA (GABA [6]; Initial) of 1.070 µmol/mL and a Glutamate (Glutamate [7]; After 6 months) of 0.385 µmol/mL. The Glutamate (Glutamate [7]; Initial) was 0.419 µmol/mL, the “Platelet MAO” value (Platelet MAO; After 6 months) was 5.98 nmol/mL/h and the “Platelet MAO” value (Platelet MAO; Initial) was 5.04 nmol/mL/h. The Glutamate (Glutamate [8]) was 4.23 nmol/mg/h, the Epinephrine (Epinephrine) was 5.32 ng/mL and the “IL-1 β” value (IL-1 β; After 2 months) was 1.886 µg/mL. The “IL-1 β” value (IL-1 β; After 4 months) was 1.923 µg/mL, the “IL-1 β” value (IL-1 β; After 6 months) was 1.790 µg/mL and the “IL-1 β” value (IL-1 β; Initial) was 2.098 µg/mL. For the same compound, the “TNF-1 α” value (TNF-α; After 2 months) was 3.71 ng/mL, the “TNF-1 α” value (TNF-α; After 4 months) was 3.85 ng/mL and the “TNF-1 α” value (TNF-α; After 6 months) was 4.14 ng/mL. The “TNF-1 α” value (TNF-α; Initial) was 4.82 ng/mL, the DHA (DHA; After 2 months) was 1.082 g/100 g of total fatty acid and the DHA (DHA; After 4 months) was 1.920 g/100 g of total fatty acid. For the same compound, the DHA (DHA; After 6 months) was 1.980 g/100 g of total fatty acid, the DHA (DHA; Initial) was 1.096 g/100 g of total fatty acid and the “Occipito frontalis muscle action potential” value (depression cases [9]; After 2 months) was 41.75. For the same compound, the “Occipito frontalis muscle action potential” value (depression cases [9]; After 4 months) was 42.82, the “Occipito frontalis muscle action potential” value (depression cases [9]; After 6 months) was 40.86 and the “Occipito frontalis muscle action potential” value (depression cases [9]; Initial) was 4.378. The “Delta Wave” value (depression cases [10]; After 2 months) was 0.94 Hz, the “Delta Wave” value (depression cases [10]; After 4 months) was 1.06 Hz and the “Delta Wave” value (depression cases [10]; After 6 months) was 1.02 Hz. For the same compound, the “Delta Wave” value (depression cases [10]; Initial) was 0.68 Hz, the Neuro-peptide-γ (Neuro-peptide-γ; After 2 months) was 148.90 pg/mL and the Neuro-peptide-γ (Neuro-peptide-γ; After 4 months) was 151.89 pg/mL. The Neuro-peptide-γ (Neuro-peptide-γ; After 6 months) was 156.04 pg/mL, the Neuro-peptide-γ (Neuro-peptide-γ; Initial) was 129.68 pg/mL and the “Sleep Latency” value (depressive patients; After 6 months treatment) was 14.98 min. For the same compound, the Sleep period (depressive patients; After 6 months treatment) was 438.35 min, the “Stage-I (Time in min)” value (depressive patients; After 6 months treatment) was 162.98 min and the “Stage-II (Time in min)” value (depressive patients; After 6 months treatment) was 46.22 min. For the same compound, the “Stage-III (Time in min)” value (depressive patients; After 6 months treatment) was 15.82 min, the “Total Sleep” value (depressive patients; After 6 months treatment) was 201.94 min and the “Sleep Latency” value (depressive patients; Before treatment) was 13.62 min. The Sleep period (depressive patients; Before treatment) was 445.90 min, the “Stage-I (Time in min)” value (depressive patients; Before treatment) was 179.32 min and the “Stage-II (Time in min)” value (depressive patients; Before treatment) was 45.82 min. The “Stage-III (Time in min)” value (depressive patients; Before treatment) was 18.22 min and the “Total Sleep” value (depressive patients; Before treatment) was 234.98 min.
`CNC1=Nc2ccc(Cl)cc2C(c2ccccc2)=[N+]([O-])C1` [Librium] was tested, and the “Melatonin, Hypothalamus” value (Melatonin; hypothalamus) was 7.80 ± 1.02 μg/gm in wet tissue, the “Melatonin, Thalamus” value (Melatonin; thalamus) was 5.95 ± 1.85 μg/gm in wet tissue and the “GABA, Cortex” value (GABA [11]; cortex) was 2.62 ± 0.59 μmol/gm in wet tissue. For the same compound, the “GABA, Hypothalamus” value (GABA [11]; hypothalamus) was 4.68 ± 1.02 μmol/gm in wet tissue, the “GABA, Thalamus” value (GABA [11]; thalamus) was 3.91 ± 0.58 μmol/gm in wet tissue and the “Glutamate, Cortex” value (Glutamate [12]; cortex) was 13.97 ± 2.11 μmol/gm in wet tissue. The “Glutamate, Hypothalamus” value (Glutamate [12]; hypothalamus) was 12.66 ± 3.06 μmol/gm in wet tissue, the “Glutamate, Thalamus” value (Glutamate [12]; thalamus) was 11.64 ± 3.01 μmol/gm in wet tissue and the “GABA (circulating)” value (GABA [13]) was 1.02 ± 0.18 µmol/mL. For the same compound, the “Glutamate (circulating)” value (Glutamate [14]) was 1.11 ± 0.10 µmol/mL, the “MAO (circulating)” value (MAO) was 4.72 ± 0.89 nmol/m//hrs and the “Histaminase (circulating)” value (Histaminase) was 35.46 ± 4.95 µg/mL.
